Test results taken from ChEMBL document CHEMBL1122261, “Synthesis of three potential inhibitors of leukotriene biosynthesis” (1983).

Columns and labels:
Assay type in all cases: functional
Homo sapiens [1] = organism: Homo sapiens; experiment: In vitro effect on lipoxygenase activity in intact human polymorphonuclear leukocytes at a concentration of 10 e-4 M on formation of Leukotriene B4 (LTB4)
Homo sapiens [2] = organism: Homo sapiens; experiment: In vitro effect on lipoxygenase activity in intact human polymorphonuclear leukocytes at a concen of 10 e-4 M on formation of 5-HETE
Homo sapiens [3] = organism: Homo sapiens; experiment: In vitro effect on lipoxygenase activity in intact human polymorphonuclear leukocytes at a concentration of 10 e-4 M on formation of 5-HETE

SMILES | Effect (Homo sapiens [1]) [%] | Effect (Homo sapiens [2]) [%] | Effect (Homo sapiens [3]) [%]
CCCCC/C=C\C/C=C\C/C=C\Cc1ccccc1CCCC(=O)O | -91 | -94 | –
CCCCC/C=C\C/C=C\C/C=C\C(C)(C)/C=C\CCCC(=O)O | 19 | – | 29
CCCCC/C=C\C/C=C\C(C)(C)/C=C\C/C=C\CCCC(=O)O | 40 | 60 | –
